Series [1] relates to MeWo cells. Description: Time-Lapse Live-Cell Imaging of 2D MeWo culture. To be noted: 20 μM. Format: cell-based, human. Here is the method: MeWo culture was performed using Time-Lapse Live-Cell Imaging System formed by a Bold Line Top Stage Incubator for 35 mm Petri dishes (H301-T UNIT BL; Okolab S.r.l., Pozzuoli, Italy), that allows the acquisition of the same field along the culture time in fixed culture point mapped by the fully automated stage. The incubator has independent control of gas (CO2/O2), humidity and temperature, and ensured an environment with 37 °C of temperature and 5% of CO2 atmosphere. The system allows acquisition in brightfield and fluorescence. All images of different fields within the culture chamber were achieved automatically, using Olympus IX83 time-lapse microscope by motorized stage and CCD monochrome camera (mod. XM10, Olympus, Segrate, Italy), and with all operations under the control of the X-Excellence advanced live-cell imaging software (version 2.0, Olympus Inc., Segrate, Italy). In our case, cell images were captured in brightfield using a 10× objective every 4 h intervals. The related videos reported in Supplementary Materials were generated with windows movie maker software (version 2.0, Microsoft) starting from the acquired frames.

Series [2] concerns MeWo cells. Description: MTT cell viability assay on 2D MeWo culture. It counts as cell-based, human. To be noted: for inhibition of MeWo viability / decrease in cell viability: 20 μM; for inhibition of MeWo viability / change of cell viability (in words): 24 h. Here is the method: (§1) IC50 values for MeWo cells were calculated with GraphPad Prism software (6.0 for Windows, LLC, San Diego, CA, USA).
(§2) Then, the supernatant was removed and 100 μL of dimethyl sulfoxide (DMSO) was added to solubilize formazan crystals. The absorbance was measured at 490 nm using a microplate reader (Infinite F200 PRO, Tecan Group Ltd., Männedorf, Switzerland) Cell metabolic activity was calculated as percentage compared to the control group (considered as 100%), according to Equation (1):(1) % Cell metabolic activity=Abs of sample−Abs blank/Abs of control−Abs blank×100
(Formazan colour is commonly taken as a measure of viable cells.)

In series [3] the test system is MeWo cells. Description: Apoptosis by Annexin V / propidium iodide flow cytometry. It counts as cell-based, human. Conditions: 20 μM. Here is the method:
Annexin V FITC Apoptosis Detection Kit (Cat. […] Then, 5 μL of Annexin V FITC Conjugate and 5 μL of propidium Iodide PE Solution were added to 100 μL of the cell suspension (1 × 10^6 cells/mL). After incubation for 15 min at room temperature with light protection, 400 μL of Annexin V Binding Solution was added for flow cytometry analysis.
(In general: Flow cytometry measures light scatter and fluorescence of single cells or particles in a stream.)

The subject of a further series is histone H2AX. Description: Western blot of histone H2AX phosphorylation in MeWo cells. Format: cell-based, human. To be noted: 20 μM. Here is the method:
(§3) Human melanoma cells (MeWo; ATCC®, HTB-65^TM) were grown in 100 mm Petri Dishes at a density of 1.5 × 10^4 cells/cm^2 and treated with 20 μM of AuM1 (5′-15′-30′-1 h) and AgM1 (5′-15′-30′-1 h-24 h). After treatments, cells were harvested and lysed in RIPA buffer (NaCl 150 mM, 1% triton X-100 pH 8.0, 0.5% sodium deoxycholate, 0.1% SDS, 50 mM Tris, pH 8.0), supplemented with protease inhibitors cocktail and phosphatase inhibitors (Merck), 1 h on ice. Lysates were then centrifuged for 30 min at 15,000× g and supernatant were transferred to a new 1.5 mL tube. Protein amount was determined by Bradford assay (Bio-Rad, Hercules, CA, USA) and 15 μg of total protein extracts were separated by SDS–PAGE gels and transferred onto nitrocellulose membranes. […] Immunoreactivity was detected by sequential incubation with appropriate horseradish peroxidase-conjugated secondary antibodies (Merck) for 1 h at room temperature and Pierce ECL detection reagents (Thermo Scientific, Rockford, IL, USA) on an X-ray film. […] The area under the curves, each relative to a band, was determined and the background was subtracted from the calculated values.
For orientation: Immunoblotting shows a protein as a band on a membrane.

A further series deals with p-ERK 1/2. Description: Western blot of ERK phosphorylation in MeWo cells. It counts as cell-based, human. To be noted: 20 μM. The protocol: as §3
Series [4] relates to MeWo cells. The series can be described thus: Cell cycle analysis by DNA content (propidium iodide) flow cytometry. Format: cell-based, human. Conditions: 48 h. The protocol:
Human melanoma cells (MeWo, HTB-65^TM; ATCC®, Manassas, VA, USA) were grown in 24-well plates at a density of 1 × 10^4 cells/cm^2 and treated with AuM1 (at 1 μM and 5 μM) and AgM1 (at 10 μM and 20 μM) for 24 h and 48 h. After treatments, cells were transferred in 15 mL polypropylene V-bottomed tubes, rinsed twice in ice cold PBS, and stained in freshly prepared PBS buffer containing 1 mg/mL propidium iodide (PI) (Merck Life Science S.r.l., Milan, Italy), 110,000 U/mL RNase A (Merck) and 0.1% Triton X-100 (Merck Life Science S.r.l., Milan, Italy). Cells were incubated 30 min at 4 °C in the dark and analysed with a BD FACSVerse flow cytometer (Becton Dickinson, BD, Franklin Lakes, NJ, USA) counting 1 × 10^4 events per sample. G1, S and G2/M cell cycle phase percentages were analysed by ModFit LT software (version 3.0).

For another series, the system named is MeWo 3D culture. The series can be described thus: Live/Dead assay on 3D MeWo cultures (spheroids). Format: cell-based, human. Conditions: 3D MeWo culture, 5 μM, 24 h, semi-quantitative. An excerpt:
High density 3D cultures were obtained using 96-well ultra-low attachment microplates (Corning, Manassas, VA, USA). Briefly, MeWo cells were resuspended at a density of 500.000 cells/mL. […] For the cell viability assay, the average value of 10 3D-systems (n = 3) were considered.
Cell viability of 3D cultures was detected by fluorescence Live/Dead assay after cellular aggregate formation. Calcein AM solution (Cat. no C1359, Sigma-Aldrich) was used to stain live cells, while cell membrane-impermeable Ethidium homodimer I solution (Cat. no E1903, Sigma-Aldrich) for nuclei of dead cells.

The nature of series [5]: Hydrolytic stability by 1H-NMR. It counts as physicochemical. To be noted: D2O-10% of DMSO-d6; 0 h, 2 h, 4 h, 24 h, 48 h and 72 h. From the text: 10% of DMSO-d6, following the procedure in ref. [23]. Figures S3–S6 show the 1H-NMR […]
time. These preliminary studies can be reasonably extended to all synthesized complexes because they have a similar structure. Thus, it is possible to affirm th at these complexes are […]
(1 picture or pasted object on this page, not shown here)

Another series relates to HaCaT cells. The series can be described thus: MTT selectivity study on HaCaT non-cancerous cell line. Conditions: 5 μM, 48 h. It counts as cell-based, human. Here is the method: as §1, §2
A further series in a line: Thermal stability. Format: physicochemical. To be noted: decompose before melting.
Where [6] appears, read: MeWo, MTT, 24 h of treatment, read-out: IC50 24 h.
Setting [7] is: MeWo, MTT, 48 h of treatment, read-out: IC50 48 h.
[8] abbreviates: 5 μM, screening of derivatives, MTT.

These results are taken from PMC10303371, “Activity and Selectivity of Novel Chemical Metallic Complexes with Potential Anticancer Effects on Melanoma Cells” (Molecules, 2023).

Where two headings read alike, the source gives them in different places.

The IC50 is the concentration needed to halve the response being measured. As for `C[n+]1ccn(CC(O)c2ccccc2)[c]1[Ag-][I]` (racemic) [AgL20], in the series with MeWo cells [1], the “time of treatment after which cell death was observed” value (from here on “time of treatment”) is above 96 h. Besides, in the series on MeWo cells [2], the “inhibition of MeWo viability” value was “able to inhibit MeWo viability”. Also, the “change of cell viability (in words)” value in the series with MeWo cells [2] (MeWo, 10 μM) is listed as “apparent increase in cell viability”. Further, the “reduction of cell viability” value in the series with MeWo cells [2] (MeWo, 10 μM, 48 h) is listed as “about 10%”. Also, the “decrease in cell viability” value in the series with MeWo cells [2] (MeWo, 48 h) is “more than 50%”. Besides, the figures for the IC50 in the series with MeWo cells [2] (setting [6]) and in the series with MeWo cells [2] (setting [7]) were around 19.4 µM and 18.3 µM, respectively.
In turn, `C[n+]1c(Cl)c(Cl)n(CC(O)c2ccccc2)[c]1[Ag-][I]` (racemic) [AgM1] returned an apoptotic cells with MeWo cells [3] (96 h of treatment) of around 6.7%. Further, the “phosphorylation of histone H2AX” value with histone H2AX (at 5'-30'-1 h) is recorded as “significantly increase”. The “time of treatment” value in the series with MeWo cells [1] turned out to be 96 h. Moreover, in the series on p-ERK 1/2, the “ERK phosphorylation (p-ERK)” value is “pronounced and significant decrease”. For the same compound, the “inhibition of MeWo viability” value in the series with MeWo cells [2] is reported as “able to inhibit MeWo viability”. For the same compound, the “reduction in cell viability” value in the series on MeWo cells [2] (MeWo, 1 μM, 48 h) is on record as 30%. The “reduction of cell viability” value in the series on MeWo cells [2] (MeWo, 10 μM, 48 h) is “about 10%”. Besides, in the series with MeWo cells [2] (MeWo, 48 h), the “decrease in cell viability” value was “more than 50%” and the “Minimum Inhibitory Concentration (MIC)” value stood at 1 µM. For the same compound, the IC50 in the series with MeWo cells [2] (setting [6]) worked out at 15.4 µM. The IC50 with MeWo cells [2] (setting [7]) is 14.8 µM. Further, in the series on MeWo cells [4] (20 μM), the cell cycle progression result was “G0/G1 phase cell cycle arrest”.
`C[n+]1ccn(CC(O)c2ccccc2)[c]1[Au-][Cl]` (racemic) [AuL20]: the “time of treatment” value in the series with MeWo cells [1] was above 40 h. The “inhibition of MeWo viability” value in the series with MeWo cells [2] is recorded as “able to inhibit MeWo viability”. In the series with MeWo cells [2] (MeWo, 10 μM), the “change of cell viability (in words)” value was “apparent increase in cell viability”. Besides, the “reduction of cell viability” value with MeWo cells [2] (MeWo, 10 μM, 48 h) is given as “about 10%”. Besides, in the series with MeWo cells [2] (MeWo, 48 h), the “decrease in cell viability” value is recorded as 25%. Besides, the values for the IC50 in the series with MeWo cells [2] (setting [6]) and with MeWo cells [2] (setting [7]) were around 24.6 µM and 31.1 µM, respectively.
`C[n+]1c(Cl)c(Cl)n(CC(O)c2ccccc2)[c]1[Au-][Cl]` (racemic) [AuM1]: in the series on MeWo cells [3] (8 h of exposure, control 11.7%), the apoptotic cells came to 63.8%. Also, in the series with histone H2AX (already after 5 min (5'-15'-30'-1 h)), the “phosphorylation of histone H2AX” value is “significant and marked increase”. Further, the “time of treatment” value with MeWo cells [1] was determined as 8 h. Moreover, the “red signal (dead cells), Live/Dead assay” value with MeWo 3D culture was 45%. Besides, the “ERK phosphorylation (p-ERK)” value with p-ERK 1/2 is “pronounced and significant decrease”. In the series on MeWo cells [2] (5 μM, 48 h), this compound yielded a MeWo viability of 30% and a MeWo viability reduction of 70%. Also, in the series on MeWo cells [2], the “inhibition of MeWo viability” value was “able to inhibit MeWo viability”. Further, the “decrease in cell viability” value in the series with MeWo cells [2] (MeWo, 48 h) is given as “more than 50%”. Moreover, the “reduction of cell viability” value with MeWo cells [2] (MeWo, 48 h, concentration not restated, by context 10 μM) was determined as 95%. Moreover, the 50% inhibitory concentration (IC50) in the series with MeWo cells [2] (setting [6]) is 5.48 µM. In addition, the IC50 in the series with MeWo cells [2] (setting [7]) came to 3.12 µM. Moreover, in [5], the “hydrolytic stability (1H-NMR spectra over time)” value was “no changes are observed”. Also, in the series on HaCaT cells, the HaCaT viability is on record as 70% and the “selectivity MeWo vs HaCaT (in words)” value is “most selective”. Moreover, the cell cycle progression result with MeWo cells [4] (5 μM) was “G0/G1 phase cell cycle arrest”.
On to `Cn1c(Cl)c(Cl)[n+](CC(O)c2ccccc2)[c]1[Ag-][O]C(=O)CNC(=O)OC(C)(C)C` (stereo not drawn) [AgM1Gly], for which the “hydrolytic stability (1H-NMR spectra over time)” value in series [5] is “no changes are observed”. Moreover, in the series “Thermal stability”, the “thermally stable up to temperature” value was “around 150 °C”.
For `CC(C)(C)OC(=O)N[C@@H](Cc1ccccc1)C(=O)O.CN1[CH-]N(CC(O)c2ccccc2)C(Cl)=C1Cl.[Au+]` [AuM1Phe], the “red signal (dead cells), Live/Dead assay” value in the series with MeWo 3D culture is listed as 60%. Further, the “hydrolytic stability (1H-NMR spectra over time)” value in series [5] is on record as “no changes are observed”.
In the case of `CC(C)(C)OC(=O)NCC(=O)[O-].[Ag+]` [GlyAg, Boc-Glycine silver salt], the MeWo viability reduction entry in the series with MeWo cells [2] (setting [8]) is “up to 80%”.
Turning to `CC(C)(C)OC(=O)N[C@@H](Cc1ccccc1)C(=O)[O-].[Ag+]` [PheAg, Boc-L-Phenylalanine silver salt], in the series with MeWo 3D culture, the “red signal (dead cells), Live/Dead assay” value was 50%. In the series on MeWo cells [2] (setting [8]), the MeWo viability reduction result is given as “up to 80%”. In [5], the “hydrolytic stability (1H-NMR spectra over time)” value is “no changes are observed”.
On to `N.N.[Cl][Pt][Cl]` [cisplatin, reference compound], for which the “inhibition of MeWo cultures” value with MeWo cells [2] (even at 20 μM) was “not inhibited”.
